According to patent US20250042916A1 (ACONCAGUA BIO, INC., priority 2023, published 2025):

What was measured:
[1] = target: human calcitonin receptor (CTR) and RAMP3 (AMY3) in COS-7 cells (Homo sapiens, UniProt O60896+P30988); assay: Amylin Receptor cAMP Assay I; format: cell-based; details: values marked *: Amylin Receptor cAMP Assay I; COS-7/AMY3 cells; read-out: Amylin Receptor cAMP Stimulation Activity: EC50
In short: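 COS-7 cells stably co-expressing human CTR and RAMP3 (AMY3) were stimulated with serially diluted compounds (4-fold) in DPBS with 0.5 mM IBMX and 0.1% BSA for 30 min at 37 °C, 1000 cells/well. cAMP accumulation was measured by HTRF (cAMP-d2/anti-cAMP cryptate, 1 h RT) read at 665/615 nm.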

[2] = target: T1, human calcitonin receptor (CTR) in COS-7 cells (Homo sapiens, UniProt P30988); assay: Calcitonin Receptor (CTR) cAMP Assay; format: cell-based; details: COS7-human CTR Clone #2 cells; read-out: Calcitonin Receptor cAMP Stimulation Activity: EC50
T1 construct: expressed in transfected cells; host or cells: COS-7 (COS7-human CTR Clone #2)
T1 sequence (P30988 25-474): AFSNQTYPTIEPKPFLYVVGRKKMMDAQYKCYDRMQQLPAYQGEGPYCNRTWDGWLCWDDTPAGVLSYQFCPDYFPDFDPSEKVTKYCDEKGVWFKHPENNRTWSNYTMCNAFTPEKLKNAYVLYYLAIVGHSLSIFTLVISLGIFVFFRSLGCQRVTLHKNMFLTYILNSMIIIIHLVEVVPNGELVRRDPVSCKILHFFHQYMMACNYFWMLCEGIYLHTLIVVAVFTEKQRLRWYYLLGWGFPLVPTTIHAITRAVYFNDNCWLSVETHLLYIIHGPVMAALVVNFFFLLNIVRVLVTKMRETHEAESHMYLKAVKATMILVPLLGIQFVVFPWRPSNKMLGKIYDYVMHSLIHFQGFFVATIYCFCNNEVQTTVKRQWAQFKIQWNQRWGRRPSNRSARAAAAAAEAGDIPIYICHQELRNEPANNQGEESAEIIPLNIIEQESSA
Source text: Calcitonin Receptor (CTR) cAMP Assay
The calcitonin receptor (CTR) belongs to the subfamily of GPCRs known as the secretin or ‘B’ family of GPCRs. Like other class B1 GPCRs, the CT receptor family is canonically coupled to Gs-mediated cAMP production, and measurement of cAMP accumulation has been the primary assay used to determine peptide selectivity and potency.
To optimize functional activity directed toward Gas coupling, COS-7 cells were stably transfected with human calcitonin receptor (CTR) to create COS7-human CTR Clone #2 stable cell line. 100× concentration of compound working solutions were prepared with 4-fold serial dilution in 384-well Echo LDV plate (Labcyte, Cat #LP-0200-BC). 200 nL/well 100× concentration of compound working solutions were moved to 384-well white microplate (Perkin Elmer, Cat #6007680) using Labcyte ECHO550. 1×10^5 cells/mL COS7-human CTR Clone #2 cell suspensions prepared with assay buffer [HBSS containing 20 mM HEPES (Gibco, Cat #15630-080), 0.5 mM IBMX (Sigma, Cat #15879) and 0.1% Casein (Sigma, Cat #C4765)], 20 μL cell suspensions were added to each well of previous generated assay plate which already contains 200 nL compound at 100× concentration using ThermoFisher Multidrop Combi (2000 cells/well). Seal the plate and incubate at 37° C. with 5% CO2 for 30 min.
After incubation, the cAMP assay signal was generated using cAMP dynamic 2 kit (Revvity, Cat #62AM4PEC). 10 μL cAMP-d2 working solution was added to each well, followed by […] Anti-cAMP antibody-cryptate working solution which was added to each well using CERTUS FLEX LIQUID DISPENSER. The samples were then incubated at room temperature for 1 hour protected from light. the fluorescence was read at 665 and 615 nm with Reader PerkinElmer EnVision 2105.

human calcitonin receptor (CTR) and RAMP3 (AMY3) in COS-7 cells, sequence (O60896 24-148, one chain of several): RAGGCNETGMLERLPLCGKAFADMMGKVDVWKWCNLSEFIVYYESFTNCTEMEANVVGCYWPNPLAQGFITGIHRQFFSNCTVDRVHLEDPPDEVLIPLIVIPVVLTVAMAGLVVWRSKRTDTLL

Row | EC50 [1] [nM] | EC50 [2] [nM] | Compound
1 | 4.1 | 2.1 | Cc1nnc(-c2c(CCc3ccc(F)cc3)nc(CC(C)C)c(C(N)=O)c2-c2ccc(C(=O)N[C@@H]3CCc4ccccc43)s2)o1 [Compound 106, N—[(R)-1-indanyl]-5-{5-carbamoyl-2-[2-(p-fluorophenyl)ethyl]-6-isobutyl-3-(5-methyl-1,3,4-oxadiazol-2-yl)-4-pyridyl}-2-thenamide]
2 | 6.6 | 1.6 | Cc1nnc(-c2c(CCc3ccc(F)cc3)nc(CC(C)C)c(C(N)=O)c2-c2ccc(C(=O)NCc3ccc(F)c(F)c3)s2)o1 [Compound 107, N-(3,4-difluorophenyl)methyl-5-{5-carbamoyl-2-[2-(p-fluorophenyl)ethyl]-6-isobutyl-3-(5-methyl-1,3,4-oxadiazol-2-yl)-4-pyridyl}-2-thenamide]
3 | 0.8 | 0.73 | COc1cccc2c1CC[C@H]2NC(=O)c1ccc(-c2c(C(N)=O)c(CC(C)C)nc(CCc3ccc(F)cc3)c2-c2nnc(C)o2)s1 [Compound 122, (R)-6-(4-fluorophenethyl)-2-isobutyl-4-(5-((4-methoxy-2,3-dihydro-1H-inden-1-yl)carbamoyl)thiophen-2-yl)-5-(5-methyl-1,3,4-oxadiazol-2-yl)nicotinamide]
4 | 4.4 | 0.33 | Cc1nnc(-c2c(CCc3ccc(F)cc3)nc(CC(C)C)c(C(N)=O)c2-c2cc3ccnc(NCc4ccc(F)c(F)c4)c3s2)o1 [Compound 131, 4-(7-{[(3,4-difluorophenyl)methyl]amino}-1-thia-6-aza-2-indenyl)-6-[2-(p-fluorophenyl)ethyl]-2-isobutyl-5-(5-methyl-1,3,4-oxadiazol-2-yl)nicotinamide]
5 | > 1000 | 280 | COC1CCCN(c2nccc3cc(-c4c(C(N)=O)c(CC(C)C)nc(CCc5ccc(F)cc5)c4-c4nnc(C)o4)sc23)C1 (centres unmarked) [Compound 135, 6-(4-fluorophenethyl)-2-isobutyl-4-(7-(3-methoxypiperidin-1-yl)thieno[2,3-c]pyridin-2-yl)-5-(5-methyl-1,3,4-oxadiazol-2-yl)nicotinamide]
6 | 94 | 8.8 | Cc1nnc(-c2c(CCc3ccc(F)cc3)nc(CC(C)C)c(C(N)=O)c2-c2ccc3c(c2)CCC3OCc2ccc(F)c(F)c2)o1 (centres unmarked) [Compound 142, 4-{1-[(3,4-difluorophenyl)methoxy]-5-indanyl}-6-[2-(p-fluorophenyl)ethyl]-2-isobutyl-5-(5-methyl-1,3,4-oxadiazol-2-yl)nicotinamide]
7 | 51.4 | 6.9 | Cc1nnc(-c2c(CCc3ccc(F)cc3)nc(CC(C)C)c(C(N)=O)c2-c2ccc3c(ccn3CCc3ccc(F)c(F)c3)c2)o1 [Compound 144, 4-(1-(3,4-difluorophenethyl)-1H-indol-5-yl)-6-(4-fluorophenethyl)-2-isobutyl-5-(5-methyl-1,3,4-oxadiazol-2-yl)nicotinamide]
8 | 107 | 5.7 | Cc1nnc(-c2c(CCc3ccc(F)cc3)nc(CC(C)C)c(C(N)=O)c2-c2ccc3c(c2)CCCN3CCc2ccc(F)c(F)c2)o1 [Compound 174, 4-(1-(3,4-difluorophenethyl)-1,2,3,4-tetrahydroquinolin-6-yl)-6-(4-fluorophenethyl)-2-isobutyl-5-(5-methyl-1,3,4-oxadiazol-2-yl)nicotinamide]
9 | 36.6 | 8.1 | CCc1nc(CC(C)C)c(C(N)=O)c(-c2cc3ccnc(N[C@@H]4CCc5cc(F)ccc54)c3s2)c1-c1nnc(C)o1 [Compound 188, (R)-6-ethyl-4-(7-((5-fluoro-2,3-dihydro-1H-inden-1-yl)amino)thieno[2,3-c]pyridin-2-yl)-2-isobutyl-5-(5-methyl-1,3,4-oxadiazol-2-yl)nicotinamide]
10 | 4060 | 738 | Cc1nnc(-c2c(C34CC(C(F)F)(C3)C4)nc(CC(C)C)c(C(N)=O)c2-c2ccc(C(=O)NCc3ccc(F)c(F)c3)s2)o1 [Compound 190, 4-(5-((3,4-difluorobenzyl)carbamoyl)thiophen-2-yl)-6-(3-(difluoromethyl)bicyclo[1.1.1]pentan-1-yl)-2-isobutyl-5-(5-methyl-1,3,4-oxadiazol-2-yl)nicotinamide]
